Experimental data taken from ChEMBL document CHEMBL5696442, “Discovery of type II inhibitors of TGFβ-activated kinase 1 (TAK1) and mitogen-activated protein kinase kinase kinase kinase 2 (MAP4K2)” (J Med Chem, 2015).
The source made the active and inactive calls. The rule behind the calls is not given here.

How the values were obtained:
[1] = target: Casein kinase I isoform epsilon (Homo sapiens) (UniProt P49674); assay: Inhibition of CK1epsilon Lys2 labeling site in human A-375 cells at 5 uM by KiNativ Profiling analysis relative to control; type: cell-based
Sequence of Casein kinase I isoform epsilon (Homo sapiens) (P49674 whole entry, looked up, canonical isoform): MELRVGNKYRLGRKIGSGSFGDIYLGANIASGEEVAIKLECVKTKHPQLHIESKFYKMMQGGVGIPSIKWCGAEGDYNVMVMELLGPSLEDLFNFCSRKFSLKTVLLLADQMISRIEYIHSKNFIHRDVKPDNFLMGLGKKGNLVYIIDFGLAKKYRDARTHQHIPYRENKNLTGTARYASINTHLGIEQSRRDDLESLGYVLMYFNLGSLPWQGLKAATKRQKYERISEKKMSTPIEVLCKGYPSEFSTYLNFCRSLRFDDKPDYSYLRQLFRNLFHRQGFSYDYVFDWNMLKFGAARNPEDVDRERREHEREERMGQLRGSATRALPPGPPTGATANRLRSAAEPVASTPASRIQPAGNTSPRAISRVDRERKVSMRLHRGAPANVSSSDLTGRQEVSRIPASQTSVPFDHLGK

[2] = target: T1, Eukaryotic translation initiation factor 2-alpha kinase 3 (Homo sapiens) (UniProt Q9NZJ5); assay: Inhibition of PEK K2 labeling site in human Huh-7 cells at 10 uM by KiNativ Profiling analysis relative to control; type: cell-based
T1 sequence (whole entry): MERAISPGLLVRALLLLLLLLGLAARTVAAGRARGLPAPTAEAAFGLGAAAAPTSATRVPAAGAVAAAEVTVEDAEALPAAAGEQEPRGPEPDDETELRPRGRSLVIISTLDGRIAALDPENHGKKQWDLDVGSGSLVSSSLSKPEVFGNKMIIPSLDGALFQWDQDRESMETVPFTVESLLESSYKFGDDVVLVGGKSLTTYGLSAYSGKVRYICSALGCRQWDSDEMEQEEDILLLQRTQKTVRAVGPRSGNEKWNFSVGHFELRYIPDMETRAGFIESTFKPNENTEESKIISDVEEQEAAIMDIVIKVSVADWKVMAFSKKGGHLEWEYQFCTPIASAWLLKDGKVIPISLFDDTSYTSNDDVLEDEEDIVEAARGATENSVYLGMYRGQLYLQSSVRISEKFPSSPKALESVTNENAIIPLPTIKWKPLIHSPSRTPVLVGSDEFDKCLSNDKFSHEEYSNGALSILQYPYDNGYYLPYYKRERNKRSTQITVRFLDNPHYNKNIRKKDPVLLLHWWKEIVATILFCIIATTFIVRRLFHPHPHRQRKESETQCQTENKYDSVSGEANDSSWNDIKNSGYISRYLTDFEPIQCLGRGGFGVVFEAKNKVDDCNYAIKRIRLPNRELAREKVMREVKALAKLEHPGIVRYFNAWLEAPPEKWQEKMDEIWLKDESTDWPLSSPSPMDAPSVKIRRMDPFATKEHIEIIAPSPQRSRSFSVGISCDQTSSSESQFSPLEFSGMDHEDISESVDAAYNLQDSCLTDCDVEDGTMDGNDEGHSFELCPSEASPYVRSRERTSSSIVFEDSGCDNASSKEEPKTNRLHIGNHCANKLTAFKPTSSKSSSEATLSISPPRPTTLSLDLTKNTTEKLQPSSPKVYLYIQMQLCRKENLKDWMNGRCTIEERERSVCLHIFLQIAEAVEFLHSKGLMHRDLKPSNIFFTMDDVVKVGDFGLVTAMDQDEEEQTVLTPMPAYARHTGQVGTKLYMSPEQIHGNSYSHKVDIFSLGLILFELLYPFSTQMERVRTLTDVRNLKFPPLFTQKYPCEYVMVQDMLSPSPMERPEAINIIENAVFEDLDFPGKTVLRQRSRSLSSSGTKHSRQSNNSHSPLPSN

[3] = target: Ribosomal protein S6 kinase alpha-3 (Homo sapiens) (UniProt P51812); assay: Inhibition of RSK2 Domain 2 K2 labeling site harbouring DLKPSNILYVDESGNPESIR in human Huh-7 cells at 10 uM by KiNativ Profiling analysis relative to control; type: cell-based
Sequence of Ribosomal protein S6 kinase alpha-3 (Homo sapiens) (P51812 whole entry, the tested form may be a part): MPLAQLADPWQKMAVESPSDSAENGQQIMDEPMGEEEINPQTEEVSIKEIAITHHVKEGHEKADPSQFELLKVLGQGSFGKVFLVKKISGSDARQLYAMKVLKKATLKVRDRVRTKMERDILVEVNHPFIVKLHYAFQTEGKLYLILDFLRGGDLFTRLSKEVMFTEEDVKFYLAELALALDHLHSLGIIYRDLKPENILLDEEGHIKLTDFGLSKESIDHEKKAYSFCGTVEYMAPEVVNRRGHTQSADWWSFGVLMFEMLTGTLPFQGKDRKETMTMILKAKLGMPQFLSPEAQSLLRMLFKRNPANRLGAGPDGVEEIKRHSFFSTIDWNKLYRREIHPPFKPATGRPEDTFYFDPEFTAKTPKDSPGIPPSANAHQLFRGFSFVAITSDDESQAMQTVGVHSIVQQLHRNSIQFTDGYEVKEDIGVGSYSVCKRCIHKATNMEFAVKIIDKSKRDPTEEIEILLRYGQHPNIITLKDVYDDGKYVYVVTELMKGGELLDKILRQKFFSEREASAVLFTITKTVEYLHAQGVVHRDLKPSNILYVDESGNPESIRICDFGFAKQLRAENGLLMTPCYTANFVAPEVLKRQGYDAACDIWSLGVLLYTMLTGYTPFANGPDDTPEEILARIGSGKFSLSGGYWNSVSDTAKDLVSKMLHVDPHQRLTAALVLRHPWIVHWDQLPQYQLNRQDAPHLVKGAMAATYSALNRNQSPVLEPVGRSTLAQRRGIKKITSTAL

[4] = target: T2, Serine/threonine-protein kinase 3 (Homo sapiens) (UniProt Q13188); assay: Inhibition of MST2 K1 labeling site in human Huh-7 cells at 1 uM by KiNativ Profiling analysis relative to control; type: cell-based
T2 sequence (whole entry): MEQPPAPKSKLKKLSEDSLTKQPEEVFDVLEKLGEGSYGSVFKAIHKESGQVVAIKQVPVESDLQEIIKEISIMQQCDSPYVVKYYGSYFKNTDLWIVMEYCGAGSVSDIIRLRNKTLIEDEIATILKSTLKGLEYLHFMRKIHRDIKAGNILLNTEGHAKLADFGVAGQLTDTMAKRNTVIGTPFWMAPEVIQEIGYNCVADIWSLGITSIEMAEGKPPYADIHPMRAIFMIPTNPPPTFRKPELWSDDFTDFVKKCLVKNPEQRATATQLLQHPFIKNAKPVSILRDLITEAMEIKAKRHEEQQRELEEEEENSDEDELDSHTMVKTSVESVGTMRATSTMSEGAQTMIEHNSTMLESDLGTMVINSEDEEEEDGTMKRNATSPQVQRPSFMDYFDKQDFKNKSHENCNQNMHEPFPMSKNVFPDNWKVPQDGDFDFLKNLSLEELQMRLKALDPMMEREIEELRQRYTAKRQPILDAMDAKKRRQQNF

[5] = target: Microtubule-associated serine/threonine-protein kinase 2 (Homo sapiens) (UniProt Q6P0Q8); assay: Inhibition of MAST2 Lys2 labeling site harbouring DLKPDNLLITSMGHIK in human Huh-7 cell lysate at 1 uM by KiNativ Profiling analysis relative to control; type: subcellular
Sequence of Microtubule-associated serine/threonine-protein kinase 2 (Homo sapiens) (Q6P0Q8 whole entry): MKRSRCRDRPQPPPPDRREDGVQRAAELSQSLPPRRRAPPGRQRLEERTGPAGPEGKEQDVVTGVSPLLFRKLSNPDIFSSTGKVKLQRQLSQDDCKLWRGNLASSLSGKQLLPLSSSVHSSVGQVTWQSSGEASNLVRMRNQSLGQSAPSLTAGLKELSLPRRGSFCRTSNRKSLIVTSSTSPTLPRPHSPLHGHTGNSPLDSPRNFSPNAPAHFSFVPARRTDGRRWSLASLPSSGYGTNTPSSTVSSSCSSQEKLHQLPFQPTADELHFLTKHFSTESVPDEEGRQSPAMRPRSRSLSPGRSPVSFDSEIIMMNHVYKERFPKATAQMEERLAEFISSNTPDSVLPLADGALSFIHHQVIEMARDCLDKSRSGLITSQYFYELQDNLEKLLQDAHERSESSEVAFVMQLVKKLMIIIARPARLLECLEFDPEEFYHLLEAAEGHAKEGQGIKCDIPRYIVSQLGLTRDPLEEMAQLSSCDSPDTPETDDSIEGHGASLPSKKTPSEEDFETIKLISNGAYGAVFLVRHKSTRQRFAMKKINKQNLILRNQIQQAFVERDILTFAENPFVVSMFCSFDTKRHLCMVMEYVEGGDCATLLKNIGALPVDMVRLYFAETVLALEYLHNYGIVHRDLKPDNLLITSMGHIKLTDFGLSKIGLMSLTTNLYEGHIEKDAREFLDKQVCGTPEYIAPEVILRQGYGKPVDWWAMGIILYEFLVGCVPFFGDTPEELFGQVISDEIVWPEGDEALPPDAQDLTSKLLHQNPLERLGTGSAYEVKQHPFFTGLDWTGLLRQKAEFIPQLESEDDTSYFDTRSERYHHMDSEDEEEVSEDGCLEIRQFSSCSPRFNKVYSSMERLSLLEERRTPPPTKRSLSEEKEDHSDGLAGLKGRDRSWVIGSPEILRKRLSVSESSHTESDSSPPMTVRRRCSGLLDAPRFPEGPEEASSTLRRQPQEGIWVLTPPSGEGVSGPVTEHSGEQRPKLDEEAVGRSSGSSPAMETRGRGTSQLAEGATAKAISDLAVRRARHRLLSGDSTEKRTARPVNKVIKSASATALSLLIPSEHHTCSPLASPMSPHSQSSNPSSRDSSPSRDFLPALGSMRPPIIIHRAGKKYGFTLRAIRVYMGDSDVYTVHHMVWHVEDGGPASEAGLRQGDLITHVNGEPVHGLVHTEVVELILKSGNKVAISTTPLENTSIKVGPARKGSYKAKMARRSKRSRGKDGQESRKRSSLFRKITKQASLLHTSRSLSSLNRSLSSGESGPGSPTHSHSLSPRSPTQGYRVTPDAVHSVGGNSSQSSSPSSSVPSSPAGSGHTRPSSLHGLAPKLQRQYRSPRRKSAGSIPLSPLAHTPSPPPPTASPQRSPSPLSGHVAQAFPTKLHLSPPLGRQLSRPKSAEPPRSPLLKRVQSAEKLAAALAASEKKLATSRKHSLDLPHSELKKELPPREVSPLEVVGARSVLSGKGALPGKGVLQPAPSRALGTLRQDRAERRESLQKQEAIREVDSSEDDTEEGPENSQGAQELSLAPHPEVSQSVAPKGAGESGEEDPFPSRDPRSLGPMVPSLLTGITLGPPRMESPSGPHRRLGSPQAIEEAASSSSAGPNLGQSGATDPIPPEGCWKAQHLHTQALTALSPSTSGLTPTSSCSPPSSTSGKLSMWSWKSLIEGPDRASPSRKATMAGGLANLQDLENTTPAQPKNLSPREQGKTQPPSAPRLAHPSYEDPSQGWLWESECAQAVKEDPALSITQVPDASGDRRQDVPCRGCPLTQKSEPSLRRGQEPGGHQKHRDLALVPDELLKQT

[6] = target: Protein kinase C beta type (Homo sapiens) (UniProt P05771); assay: Inhibition of PKCb Lys2 labeling site in human Huh-7 cell lysate at 1 uM by KiNativ Profiling analysis relative to control; type: subcellular
Sequence of Protein kinase C beta type (Homo sapiens) (P05771 2-671 limits assumed): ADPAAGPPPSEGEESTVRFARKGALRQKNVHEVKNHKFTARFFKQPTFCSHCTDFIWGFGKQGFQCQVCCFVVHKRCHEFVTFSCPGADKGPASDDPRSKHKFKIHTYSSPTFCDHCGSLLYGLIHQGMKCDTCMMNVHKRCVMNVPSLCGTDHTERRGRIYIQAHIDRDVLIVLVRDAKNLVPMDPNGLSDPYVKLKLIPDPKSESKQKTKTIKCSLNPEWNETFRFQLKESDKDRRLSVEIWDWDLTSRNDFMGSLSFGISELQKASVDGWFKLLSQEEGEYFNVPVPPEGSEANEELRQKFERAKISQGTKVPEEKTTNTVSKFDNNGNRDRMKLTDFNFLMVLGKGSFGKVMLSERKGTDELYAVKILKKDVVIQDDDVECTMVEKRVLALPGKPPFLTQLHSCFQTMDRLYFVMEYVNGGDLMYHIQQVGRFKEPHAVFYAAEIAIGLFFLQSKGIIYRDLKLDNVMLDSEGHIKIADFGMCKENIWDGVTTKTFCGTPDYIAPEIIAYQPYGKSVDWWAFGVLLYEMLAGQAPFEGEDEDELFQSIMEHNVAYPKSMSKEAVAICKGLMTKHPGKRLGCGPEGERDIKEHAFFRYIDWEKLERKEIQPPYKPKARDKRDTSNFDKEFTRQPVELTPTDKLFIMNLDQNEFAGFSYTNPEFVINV

[7] = target: Serine/threonine-protein kinase 4 (Homo sapiens) (UniProt Q13043); assay: Inhibition of MST1 Lys2 labeling site harbouring DIKAGNILLNTEGHAK in human Huh-7 cell lysate at 1 uM by KiNativ Profiling analysis relative to control
Sequence of Serine/threonine-protein kinase 4 (Homo sapiens) (Q13043 whole entry, looked up): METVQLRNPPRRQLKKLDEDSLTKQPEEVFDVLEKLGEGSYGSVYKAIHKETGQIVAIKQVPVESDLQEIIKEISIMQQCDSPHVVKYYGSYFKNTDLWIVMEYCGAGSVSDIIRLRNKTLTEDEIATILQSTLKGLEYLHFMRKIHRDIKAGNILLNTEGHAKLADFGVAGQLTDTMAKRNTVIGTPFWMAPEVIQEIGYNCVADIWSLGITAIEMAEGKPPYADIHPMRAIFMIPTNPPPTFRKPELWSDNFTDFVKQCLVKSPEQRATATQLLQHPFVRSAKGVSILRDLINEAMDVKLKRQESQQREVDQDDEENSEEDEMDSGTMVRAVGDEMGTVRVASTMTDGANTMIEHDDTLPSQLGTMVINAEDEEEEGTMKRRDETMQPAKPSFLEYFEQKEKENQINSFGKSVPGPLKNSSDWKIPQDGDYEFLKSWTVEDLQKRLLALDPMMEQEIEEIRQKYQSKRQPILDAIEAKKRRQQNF

## CCN1CCN(Cc2ccc(NC(=O)c3ccc(C)c(/C=C/c4cnc5[nH]ccc5c4OC)c3)cc2C(F)(F)F)CC1
[1]
  inhibition: 1.4%

## CCN1CCN(Cc2ccc(NC(=O)c3ccc(C)c(Oc4ccnc5[nH]ccc45)c3)cc2C(F)(F)F)CC1
[2]
  inhibition: inactive
[3]
  inhibition: 14.5%
[4]
  inhibition: 16.2%

## CNc1cc(Oc2cc(C(=O)Nc3cc(N4CCN(C)CC4)cc(C(F)(F)F)c3)ccc2C)ncn1
[5]
  inhibition: 7.2%
[6]
  inhibition: -1.2%
[7]
  inhibition: 8.2%
